# Test system: OVCAR-8 complex spheroid, growth inhibition
# Assay: Anticancer human tumor OVCAR-8 cell line growth inhibition [Asc];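 also: spheroids exposed to agents for 7 days before readout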;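 as to viability, T/C: percent viability relative to DMSO vehicle wells taken as 100%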
# Details: for IC50: curve of first compound; for viability, T/C: stronger effect = lower value
# Experimental: Multicellular complex tumor spheroid response to apoptosis pathway targeting inhibitors Alrizomadlin, Pelcitoclax, and Dasminapant in combination with a variety of drugs and investigational agents in selected tumor cell lines
# The MDM2 inhibitor alrizomadlin, the Bcl-2/Bcl-xL inhibitor pelcitoclax, and the IAPs inhibitor dasminapant were evaluated both individually and in combination with standard of care and investigational anticancer small molecules within a complex spheroid model of solid tumors. . Complex spheroids include a stromal component modeled by human endothelial cells (HUVEC) and fibroblasts modeled by human mesenchymal stem cells (MSCs). The concentration ranges selected for each drug and investigational agent were based upon clinically achievable concentrations if the clinical Cmax of the agent was known.
# Compounds. The drugs and investigational agents: alrizomadlin (APG-115; NSC831270), pelcitoclax (APG-1252; NSC835773), dasminapant (APG-1387;NSC834197), TAK-243 (NSC785004), copanlisib (NSC809693), olaparib (NSC753686), talazoparib (NSC767125), cobimetinib (NSC 768068), eltanexor (KPT-8602, NSC 794443), abemaciclib (NSC 768073), sotorasib (NSC818433), adagrasib (NSC 831453), MRTX-1133 (NSC 836407), Iadademestat (ORY1001, NSC 806812), and RMC-4630 (NSC839698), were obtained from the NCI Developmental Therapeutics Program Chemical Repository. The FDA-approved anticancer drug set is available from the Developmental Therapeutics Program at https://dtp.cancer.gov/organization/dscb/obtaining/available plates.htm. […] The stock solutions were prepared in dimethyl sulfoxide (DMSO, Sigma-Aldrich, St. Louis, MO, cat. D2650) at 800-fold the tested concentration and stored at -70 degrees C prior to their use. All drugs and investigational agents were tested over a range starting from a high concentration at or near the clinical Cmax and decreasing in half-log increments. If the clinical Cmax for an agent had not been determined, the highest concentration tested was 10 microM.
# The patient-derived cancer (PDC) cell lines include five colon adenocarcinomas: 186277-243-T-J2-PDC, 616215-338-R-J1-PDC, 439559-082-T-J2-PDC, 463943-066-T-J2-PDC, and 519858-162-T-J1-PDC; three pancreatic carcinomas: 323965-272-R-J2-PDC, 521955-158-R6-J3-PDC, and 521955-158-R2-J5-PDC; two uterine sarcomas: 327498-152-R-J2-PDC and 993429-296-R-J1-PDC; two rhabdomyosarcomas: 755483-174-R-J1-PDC and 772245-204-R-J1-PDC; two soft tissue sarcomas: 126254-015-R-J1-PDC and 494315-158-R-J1-PDC; two malignant fibrous histiocytomas: 317291-083-R-J1-PDC and 596521-263-R-J1-PDC; two breast carcinomas: 171881-019-R-J1-PDC and 885512-296-R-J2-PDC; and one ovarian carcinoma: 6556581-035-R-J-PDC were obtained from the NCI PDMR, (https://pdmr.cancer.gov). The established cell lines HSSY-2 synovial sarcoma (RRID:CVCL 8719), SYO-1 synovial sarcoma (RRID:CVCL_7146), MPNST malignant peripheral neural sheath tumor were obtained from the Sloan Kettering Institute. The following established cell lines were purchased from the American Type Culture Collection (ATCC, Manassas, VA), Sor the received from the NCI repository:, PANC-1 pancreatic carcinoma (CRL-1469, RRID:CVCL_0480), OVCAR-5 ovarian carcinoma (RRID:CVCL_1628), OVCAR-8 ovarian carcinoma (RRID:CVCL_1629), , MCF-7 breast carcinoma (CRL-12584, RRID:CVCL_0031), MDA-MB-231 breast carcinoma (CRL-12532, RRID:CVCL_0062), NCI-H1876 small cell lung carcinoma (CRL-5902, RRID:CVCL_1503), NCI-H510A small cell lung carcinoma (HTB-184, RRID:CVCL_1565), NCI-H1417 (CRL-5869, RRID:CVCL_1469), and NCI-H196 small cell lung carcinoma (CRL-5823, RRID:CVCL_1509). Dr. Peter Houghton (Greehey Children's Cancer Research Institute, University of Texas Health Science Center, San Antonio, TX) provided Rh-18 rhabdomyosarcoma (RRID:CVCL_1659). Pooled donor human umbilical vein endothelial cells (HUVEC, Lonza, cat. CC-2519) and human mesenchymal stem cells (hMSC, Lonza, cat. PT-2501) were purchased from Lonza (Walkersville, MD).
# Cell Culture. […]
smiles,measurement,setting,value
Cn1ncnc1[C@H]1c2n[nH]c(=O)c3cc(F)cc(c23)N[C@@H]1c1ccc(F)cc1 + Cc1c(S(C)(=O)=O)c(-c2cc(F)cc(N3CCN(c4ccc(NS(=O)(=O)c5ccc(NC(CCN6CCC(C(=O)OCCCP(=O)(O)O)CC6)CSc6ccccc6)c(S(=O)(=O)C(F)(F)F)c5)cc4)CC3)c2)c(-c2ccc(Cl)cc2)n1C(C)C,IC50,second compound 0.0316 µM,> 100 nM
same,IC50,second compound 0.1 µM,> 100 nM
same,IC50,second compound 0.316 µM,> 100 nM
same,IC50,second compound 1 µM,> 100 nM
same,IC50,second compound 3.16 µM,> 100 nM
same,IC50,second compound 10 µM,> 100 nM
same,"viability, T/C","second compound 0.0316 µM, first compound 0.000316 µM",96.3%
same,"viability, T/C","second compound 0.0316 µM, first compound 0.001 µM",94.8%
same,"viability, T/C","second compound 0.0316 µM, first compound 0.00316 µM",90%
same,"viability, T/C","second compound 0.0316 µM, first compound 0.01 µM",103%
same,"viability, T/C","second compound 0.0316 µM, first compound 0.0316 µM",127%
same,"viability, T/C","second compound 0.0316 µM, first compound 0.1 µM",149%
same,"viability, T/C","second compound 0.1 µM, first compound 0.000316 µM",103%
same,"viability, T/C","second compound 0.1 µM, first compound 0.001 µM",106%
same,"viability, T/C","second compound 0.1 µM, first compound 0.00316 µM",115%
same,"viability, T/C","second compound 0.1 µM, first compound 0.01 µM",123%
same,"viability, T/C","second compound 0.1 µM, first compound 0.0316 µM",123%
same,"viability, T/C","second compound 0.1 µM, first compound 0.1 µM",155%
same,"viability, T/C","second compound 0.316 µM, first compound 0.000316 µM",122%
same,"viability, T/C","second compound 0.316 µM, first compound 0.001 µM",101%
same,"viability, T/C","second compound 0.316 µM, first compound 0.00316 µM",111%
same,"viability, T/C","second compound 0.316 µM, first compound 0.01 µM",101%
same,"viability, T/C","second compound 0.316 µM, first compound 0.0316 µM",141%
same,"viability, T/C","second compound 0.316 µM, first compound 0.1 µM",158%
same,"viability, T/C","second compound 1 µM, first compound 0.000316 µM",106%
same,"viability, T/C","second compound 1 µM, first compound 0.001 µM",109%
same,"viability, T/C","second compound 1 µM, first compound 0.00316 µM",106%
same,"viability, T/C","second compound 1 µM, first compound 0.01 µM",110%
same,"viability, T/C","second compound 1 µM, first compound 0.0316 µM",125%
same,"viability, T/C","second compound 1 µM, first compound 0.1 µM",160%
same,"viability, T/C","second compound 3.16 µM, first compound 0.000316 µM",130%
same,"viability, T/C","second compound 3.16 µM, first compound 0.001 µM",120%
same,"viability, T/C","second compound 3.16 µM, first compound 0.00316 µM",92.8%
same,"viability, T/C","second compound 3.16 µM, first compound 0.01 µM",115%
same,"viability, T/C","second compound 3.16 µM, first compound 0.0316 µM",138%
same,"viability, T/C","second compound 3.16 µM, first compound 0.1 µM",161%
same,"viability, T/C","second compound 10 µM, first compound 0.000316 µM",124%
same,"viability, T/C","second compound 10 µM, first compound 0.001 µM",93.1%
same,"viability, T/C","second compound 10 µM, first compound 0.00316 µM",88.3%
same,"viability, T/C","second compound 10 µM, first compound 0.01 µM",127%
same,"viability, T/C","second compound 10 µM, first compound 0.0316 µM",169%
same,"viability, T/C","second compound 10 µM, first compound 0.1 µM",164%
CCN1C(C(=O)NC23CCC(C(=O)O)(CC2)CC3)C(c2cccc(Cl)c2F)C2(C(=O)Nc3cc(Cl)ccc32)C12CCCCC2 (centres undefined) + CNC(C)C(=O)NC1CN(S(=O)(=O)c2cccc(S(=O)(=O)N3CCC4CCC(C(=O)NC(c5ccccc5)c5ccccc5)N4C(=O)C(NC(=O)C(C)NC)C3)c2)CCC2CCC(C(=O)NC(c3ccccc3)c3ccccc3)N2C1=O,IC50,second compound 0.00316 µM,> 3000 nM
same,IC50,second compound 0.01 µM,> 3000 nM
same,IC50,second compound 0.0316 µM,> 3000 nM
same,IC50,second compound 0.1 µM,> 3000 nM
same,IC50,second compound 0.316 µM,> 3000 nM
same,IC50,second compound 1 µM,> 3000 nM
same,"viability, T/C","second compound 0.00316 µM, first compound 0.00949 µM",119%
same,"viability, T/C","second compound 0.00316 µM, first compound 0.03 µM",96.5%
same,"viability, T/C","second compound 0.00316 µM, first compound 0.0949 µM",104%
same,"viability, T/C","second compound 0.00316 µM, first compound 0.3 µM",97.9%
same,"viability, T/C","second compound 0.00316 µM, first compound 0.949 µM",106%
same,"viability, T/C","second compound 0.00316 µM, first compound 3 µM",110%
same,"viability, T/C","second compound 0.01 µM, first compound 0.00949 µM",98.4%
same,"viability, T/C","second compound 0.01 µM, first compound 0.03 µM",91.1%
same,"viability, T/C","second compound 0.01 µM, first compound 0.0949 µM",95%
same,"viability, T/C","second compound 0.01 µM, first compound 0.3 µM",84.8%
same,"viability, T/C","second compound 0.01 µM, first compound 0.949 µM",105%
same,"viability, T/C","second compound 0.01 µM, first compound 3 µM",107%
same,"viability, T/C","second compound 0.0316 µM, first compound 0.00949 µM",85.4%
same,"viability, T/C","second compound 0.0316 µM, first compound 0.03 µM",86.9%
same,"viability, T/C","second compound 0.0316 µM, first compound 0.0949 µM",92.7%
same,"viability, T/C","second compound 0.0316 µM, first compound 0.3 µM",102%
same,"viability, T/C","second compound 0.0316 µM, first compound 0.949 µM",102%
same,"viability, T/C","second compound 0.0316 µM, first compound 3 µM",118%
same,"viability, T/C","second compound 0.1 µM, first compound 0.00949 µM",85.3%
same,"viability, T/C","second compound 0.1 µM, first compound 0.03 µM",78.3%
same,"viability, T/C","second compound 0.1 µM, first compound 0.0949 µM",99.8%
same,"viability, T/C","second compound 0.1 µM, first compound 0.3 µM",88.1%
same,"viability, T/C","second compound 0.1 µM, first compound 0.949 µM",118%
same,"viability, T/C","second compound 0.1 µM, first compound 3 µM",103%
same,"viability, T/C","second compound 0.316 µM, first compound 0.00949 µM",98.8%
same,"viability, T/C","second compound 0.316 µM, first compound 0.03 µM",86.5%
same,"viability, T/C","second compound 0.316 µM, first compound 0.0949 µM",90.2%
same,"viability, T/C","second compound 0.316 µM, first compound 0.3 µM",78.3%
same,"viability, T/C","second compound 0.316 µM, first compound 0.949 µM",90.4%
same,"viability, T/C","second compound 0.316 µM, first compound 3 µM",97.5%
same,"viability, T/C","second compound 1 µM, first compound 0.00949 µM",80.5%
same,"viability, T/C","second compound 1 µM, first compound 0.03 µM",79.2%
same,"viability, T/C","second compound 1 µM, first compound 0.0949 µM",95.7%
same,"viability, T/C","second compound 1 µM, first compound 0.3 µM",84.2%
same,"viability, T/C","second compound 1 µM, first compound 0.949 µM",93.3%
same,"viability, T/C","second compound 1 µM, first compound 3 µM",112%

# From PubChem BioAssay AID1963437 (Molecular Pharmacology Branch, DTP, NCI, 2024)
